US20060171935A1, “Protecting cell therapy for neurological disorders including Parkinson's disease” (priority 2005, published 2006)
Positions count from the first letter of the chain named. Names may count otherwise. Like-named read-outs stand apart in the source and are kept apart here. d = 2'-deoxy (DNA); r = 2'-OH (RNA)

Columns and labels:
[1] = tested on: primary cortical cultures; experiment: Parkin siRNA in kainate-treated primary cortical cultures, Western blot; format: cell-based, mice; conditions: 25 nM siRNA
Protocol: (§1) Cerebellar granule neurons from P6 mice were purified and transfected essentially as described (Scheiffele et al., Neuroligin expressed in nonneuronal cells triggers presynaptic development in contacting axons. Cell, 101:657-69, 2000). Dissociated cortical neurons from E16.5 mice were prepared and cultured as described (Scheiffele et al., Neuroligin expressed in nonneuronal cells triggers presynaptic development in contacting axons. Cell, 101:657-69, 2000). Primary midbrain cultures were prepared from E13.5 mouse embryos, as described (Hynes et al., Induction of midbrain dopaminergic neurons by Sonic hedgehog. Neuron, 15:35-44, 1995). Cells were treated for 24 h with or without kainate (250 or 500 μM as indicated; Sigma) or MPP^+ (1 or 10 μM as indicated; Sigma), stained for 20 min with 0.5 μg/ml Hoechst 33342 (Sigma), and visualized by fluorescence microscopy. For granule cell assays, at least 100 cells in two 20× fields were scored in duplicate for GFP and/or Hoechst signal. For immunohistochemistry, cell cultures were washed twice with PBS, and fixed for 20 min with 4% (w/v) paraformaldehyde. Cells were blocked for 1 h, at room temperature, with 3% (v/v) goat serum in PBS, and then incubated overnight, at 4° C., with specific antibodies, as indicated. Cells were washed, incubated for 1 h at room temperature with appropriately-labeled secondary antibodies, and visualized by fluorescence microscopy. For midbrain culture experiments, DAT-specific immunoreactivity (pixels), and cytoplasmic parkin and cyclin E immunoreactivity (mean pixel density), were quantified in triplicate, across nine fields of view, at 20× using Image software (Scion).
SiRNAs were synthesized by Dharmacon Research, Inc., and duplexes were formed as per the manufacturer's instructions (parkin siRNA sequence: 5′ […] […]dTdT 3′; DAT siRNA sequence: 5′ […]dTdT 3′; SERT siRNA sequence: 5′[…]dTdT 3′). […]

[2] = tested on: primary culture midbrain dopamine neurons; experiment: Parkin siRNA in primary midbrain dopamine neuron cultures; format: cell-based, mice
Protocol: as §1
SiRNAs were synthesized by Dharmacon Research, Inc., and duplexes were formed as per the manufacturer's instructions (parkin siRNA sequence: 5′ […] […]dTdT 3′; DAT siRNA sequence: 5′ […]dTdT 3′; SERT siRNA sequence: 5′[…]dTdT 3′). Cortical cultures were transfected using Lipofectamine 2000 reagent (Life Technologies); primary midbrain cultures were transfected using Transmessenger (Qiagen), as described (Krichevsky and Kosik, RNAi functions in cultured mammalian neurons. Proc. Natl. Acad. Sci. USA, 99:11926-929, 2002).
Embryonic day 13.5 (E13.5) primary culture midbrain dopamine neurons, identified by immunohistochemical staining for the dopamine transporter (DAT) (Nirenberg et al., The dopamine transporter is localized to dendritic and axonal plasma membranes of nigrostriatal dopaminergic neurons. J. Neurosci., 16:436-47, 1996), were transfected with parkin siRNA (FIG. 7, panels F-J and P-T) or control siRNA (FIG. 7, panels A-E and K-O), and subsequently exposed to kainate, as above.

DJ-1 deficient ES cells = format: cell-based
Protocol: DJ-1 has been hypothesized to function in the cellular response to oxidative stress. To investigate the role of DJ-1 in the oxidative stress response in vivo, DJ-1-deficient homozygous mutant (‘knockout’) cells and DJ-1 heterozygote (‘control’) ES cell clones were analyzed for cell viability in the context of increasing concentrations of H2O2. Heterozygous cells were used as controls because the ‘knockout’ subclones were derived from these. Cell viability was initially determined by MTT assay in triplicate (Fezoui et al. 2000). […] The increase in AV-positive cells implicated an apoptotic mechanism of cell death (FIG. 14F).
(§2) In Vivo Assays. ES cells plated in 96-well format (2.3×10^4 cells/well) were treated for 15 hours with H2O2 in ES media deficient in β-mercaptoethanol (Abeliovich et al. 2000). Cell viability (as a percent of untreated control) was determined by MTT assay in triplicate (Fezoui et al. 2000). Annexin V/Propidium Iodide (Molecular probes) staining was performed per the manufacturer's instructions. For dihydrorhodamine-123 staining (DHR, Molecular probes) (Walrand et al. 2003), cells were preincubated for 30 min with DHR (5 μM), washed with PBS, then treated with H2O2 in ES media deficient in β-mercaptoethanol for 15 min at 37° C. The FACS analysis was performed using a FACSTAR sorter (Becton Dickinson). Dopamine uptake assay was performed essentially as described (Farrer et al. 1998). Reported values represent specific uptake from which non-specific uptake, determined in the presence of mazindol, was subtracted, and normalized for protein content (BCA kit, Pierce).

citrate synthase (CS) = biological target: T1, citrate synthase (CS) (Sus scrofa, UniProt P00889); experiment: Suppression of heat-induced aggregation of citrate synthase (chaperone assay); format: biochemical; conditions: 0.8 μM CS, 43° C.
T1 construct: purchased Sigma
T1 sequence (P00889 28-464): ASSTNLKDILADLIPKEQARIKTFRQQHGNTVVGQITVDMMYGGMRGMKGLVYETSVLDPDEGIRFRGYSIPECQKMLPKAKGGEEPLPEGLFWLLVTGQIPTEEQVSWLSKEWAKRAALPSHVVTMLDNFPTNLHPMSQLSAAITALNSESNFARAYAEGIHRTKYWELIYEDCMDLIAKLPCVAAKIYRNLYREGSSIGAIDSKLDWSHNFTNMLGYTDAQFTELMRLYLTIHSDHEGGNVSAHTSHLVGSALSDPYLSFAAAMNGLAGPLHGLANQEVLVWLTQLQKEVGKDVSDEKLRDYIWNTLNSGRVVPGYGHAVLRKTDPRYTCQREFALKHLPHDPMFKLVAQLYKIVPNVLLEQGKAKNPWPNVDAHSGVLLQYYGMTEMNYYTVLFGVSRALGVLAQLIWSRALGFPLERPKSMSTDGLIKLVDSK
Protocol: To test the redox regulation of DJ-1, the inventors assayed chaperone activity in the CS aggregation assay in the presence or absence of the reducing agent DTT. […] (FIG. 22D). […] To further test whether redox regulation might govern DJ-1 chaperone activity, reactivation studies using reduced DJ-1 were performed. DTT-reduced DJ-1 was incubated with H2O2 (10 mM in aggregation buffer for 10 min at 4° C. followed by dialysis against aggregation buffer for 2 h), and subsequently chaperone activity was measured in the CS thermal aggregation assay. […] This was not an indirect effect of residual H2O2 on CS aggregation, as H2O2 treatment of CS increased aggregation (unpublished data).
CS aggregation was performed in 40 mM HEPES (pH 7.8), 20 mM potassium hydroxinde, 50 mM potassium chloride, and 10 mM ammonium sulfate, and monitored in a thermostat-controlled fluorescence spectrophotometer with excitation and emission wavelengths at 500 nm and slit widths at 2.5 nm. Insulin aggregation was performed as described (Giasson et al. 2000). CS, insulin, RNase A, and GST were obtained from Sigma; human Hsp27 was obtained from Stressgen.

DJ-1-deficient ES cells = experiment: Rescue of DJ-1-deficient ES cells from H2O2, MTT viability; format: cell-based, murine; conditions: transient transfection, 10 μM H2O2 for 15 h
Protocol: (A) DJ-1 cysteine-to-alanine mutants C106A, C53A, and a triple mutant that harbors mutations at all three cysteines in DJ-1 (C106A/C53A/C46A), as well as L166P, were tested for in vitro chaperone activity by CS aggregation suppression assay. (B) Self-association of DJ-1 cysteine mutants. Murine neuroblastoma CAD cells were transiently cotransfected with Flag-tagged human DJ-1 vectors (either WT or mutant) along with WT YFP-tagged human DJ-1. Lysates were immunoprecipitated with anti-Flag antibodies and probed by Western blotting with an antibody specific for human DJ-1. […] Lysates represent 20% of the input for the immunoprecipitate; Flag-DJ-1 migrates at 22 kDa, and YFP-DJ-1 migrates at 50 kDa. (C) DJ-1-deficient ES cells were transiently transfected with vector alone, WT DJ-1, or DJ-1 cysteine mutants, and exposed to 10 μM H2O2 for 15 h followed by MTT assay. The viability of the cells in the absence of drug treatment was not altered by the expression of WT or mutant DJ-1). Data are shown as the mean±SEM and were analyzed by ANOVA with Fisher's post-hoc test. *p<0.05.
To confirm that altered sensitivity to oxidative stress is a consequence of the loss of DJ-1, ‘rescue’ experiments by overexpressing wild-type or mutant human DJ-1 in ‘knockout’ ES cells were performed. Plasmids encoding human wild-type DJ-1, PD-associated L166P mutant DJ-1, or vector alone, were transiently transfected into DJ-1 deficient clones, and these were subsequently assayed for sensitivity to H2O2 using the MTT viability assay.
as §2

5′ UUCCAAACCGG AUGAGUGGdTdT 3′ (UUCCAAACCGGAUGAGUGGTT; siRNA; sugars from the 5' end r19 d2, backbone not given here) [parkin siRNA, parkin-specific short interfering RNA synthesized by Dharmacon]
cleaved-PARP (apoptosis marker) [1]: accumulation of cleaved poly (ADP-ribose) polymerase
cyclin E accumulation [1]: increased accumulation of cyclin E
parkin protein expression [1]: significantly reduced parkin expression
dopamine neuron sensitivity to MPP+ ([2]; MPP+ 10 μM): failed to alter dopamine neuron sensitivity
cyclin E or DAT immunoreactivity ([2]; absence of kainate): failed to alter cyclin E or DAT immunoreactivity
sensitization of DAT-negative neurons to kainate relative to DAT-positive population ([2]; cyclin E induction and apoptosis): significantly lesser extent
apoptosis of dopamine neurons ([2]; kainate): increased apoptosis
cyclin E accumulation in dopamine neurons ([2]; kainate): increased accumulation of cyclin E
DAT immunoreactivity ([2]; presence of kainate): decreased DAT immunoreactivity

OO [H2O2]
sensitivity of DJ-1 deficient cells to toxin relative to heterozygous cells (DJ-1 deficient ES cells; 15 h exposure, MTT): significantly greater toxicity

[Cl][Cu][Cl] [copper]
sensitivity of DJ-1 deficient cells to toxin relative to heterozygous cells (DJ-1 deficient ES cells; 15 h exposure, MTT): sensitized

C[C@@H]1C[C@@H]([C@H](O)CC2CC(=O)NC(=O)C2)C(=O)[C@@H](C)C1 [cycloheximide]
sensitivity of DJ-1 deficient cells to toxin relative to heterozygous cells (DJ-1 deficient ES cells; 15 h exposure, MTT): did not observe altered sensitivity

CC(=O)N[C@@H](CSC(=O)[C@]1([C@@H](O)C(C)C)NC(=O)[C@H](C)[C@@H]1O)C(=O)O [lactacystin]
sensitivity of DJ-1 deficient cells to toxin relative to heterozygous cells (DJ-1 deficient ES cells): sensitized

CN[C@@H]1C[C@H]2O[C@@](C)([C@@H]1OC)n1c3ccccc3c3c4c(c5c6ccccc6n2c5c31)C(=O)NC4 [staurosporine]
sensitivity of DJ-1 deficient cells to toxin relative to heterozygous cells (DJ-1 deficient ES cells; 15 h exposure, MTT): did not observe altered sensitivity

tunicamycin
sensitivity of DJ-1 deficient cells to toxin relative to heterozygous cells (DJ-1 deficient ES cells; 15 h exposure, MTT): did not observe altered sensitivity

B1: C106A: DJ-1 cysteine-to-alanine mutant at cysteine 106 (protein, UniProt Q99497 1-189, looked up, variant C106A)
chain: MASKRALVILAKGAEEMETVIPVDVMRRAGIKVTVAGLAGKDPVQCSRDVVICPDASLEDAKKEGPYDVVVLPGGNLGAQNLSESAAVKEILKEQENRKGLIAAIAAGPTALLAHEIGFGSKVTTHPLAKDKMMNGGHYTYSENRVEKDGLILTSRGPGTSFEFALAIVEALNGKEVAAQVKAPLVLKD
suppression of heat-induced aggregation of CS (chaperone activity) (citrate synthase (CS)): does not alter the basal activity
viability of DJ-1 knockout cells in the presence of H2O2 (DJ-1-deficient ES cells): robustly rescued

B2: C106A/C53A/C46A: triple mutant that harbors mutations at all three cysteines in DJ-1 (protein, UniProt Q99497 1-189, looked up, variant C106A C53A C46A)
chain: B1 chain with C46A, C53A
suppression of heat-induced aggregation of CS (chaperone activity) (citrate synthase (CS)): loss of chaperone function
viability of DJ-1 knockout cells in the presence of H2O2 (DJ-1-deficient ES cells): failed to protect
